# Data: the Bradley open melting point set (2014)
# “And” between values parts separate entries of the source, which are not always exact repeats. Equal values may be shown once.
row,Structure (SMILES),melting point
1,CCCCCO [1-pentanol],-78 °C
2,"O=C1CCC2C3CCC(=O)C3C12 (configuration not stated) [octahydrocyclobuta[1,2-a:3,4-a']dicyclopentene-1,6-dione]",67 °C
3,"CCOC(=O)CCC(C)C1CCC2C3C(O)C(Br)C4CC(OC(C)=O)CCC4(C)C3CC(OC(C)=O)C12C (configuration not stated) [ethyl 3,12-bis(acetyloxy)-6-bromo-7-hydroxycholan-24-oate]",166 °C
4,CCOc1ccc(NC(=O)CC(C)O)cc1 (configuration not stated) [bucetin],160 °C
5,[C-]#[O+] [Carbon monooxide],-205 °C
6,O=C1C(CCS(=O)c2ccccc2)C(=O)N(c2ccccc2)N1c1ccccc1 (configuration not stated) [Sulfinpyrazone],136 °C
7,COc1ccc(N/N=C2/C(=O)N(CO)N=C2C(F)(F)F)cc1,143 °C
8,Nc1nc(N)c2nc(-c3ccccc3)c(N)nc2n1 [triamterene],316 °C
9,C[C@]12CC[C@@H]3c4ccc(O)cc4CC[C@H]3[C@@H]1C[C@@H](O)[C@@H]2O [estriol],282 °C
10,COC(=O)c1ccccc1NC(=O)c1ccccc1 [methyl 2-(benzoylamino)benzoate],99 °C
11,Cc1ccccc1C(=O)O [2-Methylbenzoic acid],105 °C
12,COc1ccccc1 [anisole],-37 °C
13,CCCCC(CC)C(=O)O (configuration not stated) [2-ethylhexanoic acid],-59 °C
14,C[Si](C)(C)OB(O[Si](C)(C)C)O[Si](C)(C)C [tris(trimethylsilyl) borate],-35 °C
15,O=C(O)c1ccccc1Nc1cccc(C(F)(F)F)c1 [Flufenamic Acid],125 °C
16,"CCC1(CC)C(=O)NC(=O)NC1=O [5,5-diethylbarbiturate]",190 °C
17,O=C(O)COc1ccccc1[N+](=O)[O-] [2-nitrophenoxyacetic acid],158 °C
18,"CCC(=O)c1cc(F)c(O)c(F)c1 [3',5'-difluoro-4'-hydroxypropiophenone]",130 °C
19,Cc1cc(B(O)O)ccc1F [4-fluoro-3-methylbenzeneboronic acid],210 °C
20,CO [methanol],-98 °C (6×) and -97.5 °C
21,O=C[C@H](O)[C@@H](O)[C@@H](O)[C@H](O)CO [D-galactose],167 °C
22,COC(=O)c1ccncc1 [methyl isonicotinate],8 °C
23,C#C[C@]5(O)CC[C@H]4[C@H]3[C@@H]([C@@]2(/C(=C\c1oncc1C2)CC3)C)CC[C@@]45C [danazol],225 °C
24,NNC(=O)NN [Carbonohydrazide],158 °C
25,O=C(O)CCCCBr [5-bromovaleric acid],40 °C
26,O=C(O[C@@H]1[C@H]3C(=C/[C@H](C)C1)\C=C/[C@@H]([C@@H]3CC[C@H]2OC(=O)C[C@H](O)C2)C)[C@@H](C)CC [lovastatin],174 °C

row,Structure (SMILES),melting point
1,"Nc1ccc(Cl)c(Cl)c1 [3,4-Dichloroaniline]",72 °C
2,CCCCCCCCCCCCCCCCCCCCCC(=O)O [behenic acid],76 °C
3,Cc1ccccc1Br [2-bromotoluene],-27 °C
4,COC(=O)c1ccc([N+](=O)[O-])cc1 [methyl_4-nitrobenzoate],96 °C
5,NC(=O)CS(=O)C(c1ccccc1)c1ccccc1 (configuration not stated) [Modafinil],165 °C
6,"C#CC1(O)CCC2C3CCC4C(C)(C)CCCC4(C)C3CCC21C (configuration not stated) [4,4-dimethylpregn-20-yn-17-ol]",157 °C
7,CC#CCO [2-butyn-1-ol],-2 °C
8,N#CCc1ccc(O)cc1 [4-hydroxybenzyl_cyanide],71 °C
9,Cc1cccs1 [2-methylthiophene],-63 °C
10,O=C1CCC1 [cyclobutanone],-51 °C
11,C#CCCO [3-butyn-1-ol],-63 °C
12,Oc1c(F)c(F)c(F)c(F)c1F [pentafluorophenol],34 °C
13,Nc1ccn([C@H]2CC[C@@H](CO)O2)c(=O)n1 [Zalcitabine],212 °C
14,CC(=O)Oc1ccccc1C(=O)O [o-acetylsalicylic acid],138 °C
15,O=[N+]([O-])c1ccc(Cl)c(CO)c1 [2-chloro-5-nitrobenzyl alcohol],77 °C
16,COc1cccc(C(C)=O)c1 [3'-methoxyacetophenone],-7 °C
17,O=[N+]([O-])c1cccc(Cl)c1 [1-chloro-3-nitrobenzene],45 °C
18,NC(=O)c1ccccc1 [benzamide],126 °C and 127 °C
19,"O=C(O)CC(F)(F)F [3,3,3-trifluoropropionic acid]",9 °C
20,c1ccc2c(c1)ccc1ccccc12 [Phenanthrene],101 °C
21,CCN(C(C)C)C(C)C [N-ethyldiisopropylamine],-46 °C
22,Nc1ccccn1 [2-aminopyridine],58 °C
23,Fc1ccccc1-c1ccccc1 [2-fluorobiphenyl],74 °C
24,CC(=O)SCC(Cc1ccccc1)C(=O)NCC(=O)OCc1ccccc1 (configuration not stated) [acetorphan],89 °C
25,"Nc1ccc(N)cc1 [1,4-phenylenediamine]",142 °C
26,NS(=O)(=O)Cc1noc2ccccc12 [Zonisamide],162 °C

row,Structure (SMILES),melting point
1,"O=C(O)c1c(Cl)cc(Cl)cc1Cl [2,4,6-trichlorobenzoic acid]",163 °C
2,CC(=O)c1ccccc1-c1ccccc1 [2-acetylbiphenyl],56 °C
3,C[Si](C)(C)Cl [chlorotrimethylsilane],-58 °C
4,O=C(OCCOCn1c2N\C(=N/C(=O)c2nc1)N)C [O-Acetylacyclovir],242 °C
5,CCCCCCCCCCCC=O [dodecanal],12 °C
6,Oc1ccc(-c2ccccc2)cc1 [Biphenyl-4-ol],167 °C
7,COC(=O)c1sc(-c2ccccc2)cc1N [methyl 3-amino-5-phenylthiophene-2-carboxylate],147 °C
8,CCCC(=O)O [butanoic_acid],-5 °C
9,CC(=O)[C@H]1CC[C@H]2[C@@H]3CCC4=CC(=O)CC[C@]4(C)[C@H]3CC[C@]12C [progesterone],126 °C
10,OC1COC2C(O)COC12 (configuration not stated) [isosorbide],61 °C
11,Oc1cccc(Br)c1 [m-bromophenol],31 °C
12,NC(=O)CS(=O)C(c1ccccc1)c1ccccc1 (configuration not stated) [modafinil],164 °C
13,O=C(O)c1c(F)cccc1C(F)(F)F [2-fluoro-6-(trifluoromethyl)benzoic acid],86 °C
14,Cc1cc(Cl)nc2ccccc12 [2-Chloro-4-methylquinoline],56.9 °C
15,"Cc1cc(CO)nn1C [1H-pyrazole-3-methanol, 1,5-dimethyl-]",41 °C
16,BrC(c1ccccc1)c1ccccc1 [bromodiphenylmethane],41 °C
17,OCCOc1ccccc1 [2-phenoxyethanol],13 °C
18,Cc1ccn[nH]c1=O [4-Methylpyridazin-3(2H)-one],154 °C
19,Oc1ccc(I)cc1 [4-iodophenol],93 °C
20,CC(=O)N1CCN(c2ccc(OCC3COC(Cn4ccnc4)(c4ccc(Cl)cc4Cl)O3)cc2)CC1 (configuration not stated),146 °C
21,"COc1ccc(C=O)c(OC)c1 [2,4-dimethoxybenzaldehyde]",72 °C
22,COc1ccc(-c2csc(/C(C#N)=N/Nc3cc(C)ccc3C)n2)cc1,156 °C
23,CC(=O)c1ccccc1C(=O)O [2-acetylbenzoic acid],117 °C
24,N#Cc1ccc(C(c2ccc(C#N)cc2)n2cncn2)cc1 [Letrozole],184 °C
25,COc1cc2nc(N3CCN(C(=O)C4COc5ccccc5O4)CC3)nc(N)c2cc1OC (configuration not stated) [Doxazosin],290 °C
26,"O=c1c(-c2ccccc2)c1-c1ccccc1 [2,3-diphenyl-2-cyclopropen-1-one]",120 °C

row,Structure (SMILES),melting point
1,"Nc1cc2ccccc2cc1N [Naphthalene-2,3-diamine]",190 °C
2,N[C@H](Cc1ccccc1)C(=O)O [D-Phenylalanine],274 °C
3,O=C(O)Cc1ccccc1 [phenylacetic acid],77.5 °C
4,OCc1ccc(B(O)O)cc1 [4-(hydroxymethyl)benzeneboronic acid],280 °C
5,N#CCC(=O)c1ccccc1 [benzoylacetonitrile],81 °C
6,C[C@@H]1CC=CC=CC=CC=C[C@H](OC2O[C@H](C)[C@@H](O)[C@H](N)[C@@H]2O)C[C@@H]2O[C@](O)(C[C@@H](O)C[C@H]3O[C@@H]3C=CC(=O)O1)C[C@H](O)[C@H]2C(=O)O (some centres not stated) [Natamycin],290 °C
7,"Cc1cccc(C)n1 [2,6-Dimethylpyridine]",-6 °C
8,"COc1cc(Cc2cnc(N)nc2N)cc(OC)c1OC [5-(3,4,5-Trimethoxybenzyl)pyrimidine-2,4-diamine]",201 °C
9,c1cc2cccc3c4cccc5cccc(c(c1)c23)c54 [Perylene],278 °C
10,O=CNC(c1ccccc1)c1ccccc1 [N-(Diphenylmethyl)formamide],136 °C
11,CC(=O)Nc1ccc(Br)c(Cl)c1 [4'-bromo-3'-chloroacetanilide],124 °C
12,CCNc1ccccc1 [N-ethylaniline],-64 °C
13,Clc1ccccc1Cl [o-dichlorobenzene],-17 °C
14,O=C1c2ccccc2C(=O)N1CCCCCCBr [N-(6-bromohexyl)phthalimide],57 °C
15,"Brc1ccc(Br)cc1 [1,4-Dibromobenzene]",88 °C
16,"OB(O)c1c(F)cc(F)c(F)c1F [2,3,4,6-tetrafluorobenzeneboronic acid]",127 °C
17,C[C@]12CCC(=O)C=C1CC[C@@H]1[C@@H]2[C@@H](O)C[C@]2(C=O)[C@@H](C(=O)CO)CC[C@@H]12 [Aldosterone],166 °C
18,"Nc1ccc(Cl)c(Cl)c1 [3,4-dichloroaniline]",72 °C
19,CCCCCCCC(=O)O [Caprylic acid],16.3 °C
20,CCCCS(=O)CCCC [di-n-butyl sulfoxide],33 °C
21,CC(=O)/C(=N/Nc1cc(Cl)ccc1Cl)C(=O)C(F)(F)F,84 °C
22,CSc1ccccc1B(O)O [2-(methylthio)benzeneboronic acid],160 °C
23,O=C(O)C(Cl)Cl [dichloroacetic acid],10 °C
24,O=C(O)CC(CC(=O)O)c1ccc(Cl)cc1 [3-(4-chlorophenyl)glutaric acid],166 °C
